Data from patent US10894817B2, “Fatty acid modified urocortin-2 analogs for the treatment of diabetes and chronic kidney disease” (priority 2016, dated 2021).
Read-outs that look alike come from different tables or passages of the source. Marks after values point to notes of the source that are not given here. Values belong to the compound of their own block, whether it stands above or below them. Starred links: 1 amine or outer side, 2 acyl side, 3 side chain; linkers in the order of their positions; H or OH if unused. Non-standard residues stand in square brackets, D forms with d. Residues, ends and D or L forms follow the SMILES beside them. Groups on a side chain read outwards from the residue. *: point of attachment. C20 diacid = O=C(O)CCCCCCCCCCCCCCCCCCC(=O)*; C18 diacid = O=C(O)CCCCCCCCCCCCCCCCC(=O)*; γGlu = O=C(O)[C@H](CCC(=O)[*:2])N[*:1]; NMeI = CC[C@H](C)[C@H](NC)C(=O)O; AEEA = NCCOCCOCC(=O)O

How the values were obtained:
human CRHR2b = target: T1, human CRHR2b (Homo sapiens, UniProt Q13324); assay: human CRHR2b cell-based cAMP assay; details: cAMP assay, read-out: hCRHR2b Average EC50
T1 construct: expressed in transfected cells; host or cells: Chinese Hamster Ovary (CHO) cells, transient transfection
T1 sequence (Q13324 1-438 isoform Q13324-2): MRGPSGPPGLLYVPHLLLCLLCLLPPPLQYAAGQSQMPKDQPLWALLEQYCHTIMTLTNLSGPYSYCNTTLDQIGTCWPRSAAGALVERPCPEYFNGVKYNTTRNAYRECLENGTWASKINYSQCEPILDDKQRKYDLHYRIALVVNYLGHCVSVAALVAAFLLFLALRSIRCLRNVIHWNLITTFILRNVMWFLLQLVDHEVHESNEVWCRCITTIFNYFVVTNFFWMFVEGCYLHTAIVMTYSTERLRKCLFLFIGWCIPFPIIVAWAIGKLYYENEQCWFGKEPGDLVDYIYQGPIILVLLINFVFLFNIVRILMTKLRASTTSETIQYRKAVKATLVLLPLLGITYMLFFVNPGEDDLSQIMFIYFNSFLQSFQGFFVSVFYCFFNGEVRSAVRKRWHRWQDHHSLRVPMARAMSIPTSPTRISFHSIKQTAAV
How it was run: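 ED50 values are means ± SEM over several runs, curve-fitted from cAMP in pmol, calibrated against unlabeled-cAMP standards. Detection was HTRF competition, ratio 665/620 nm, after 30 min agonist exposure at 37 °C.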

[1] = Pharmacokinetics, single subcutaneous dose, mice; details: male, CD-1, mouse, plasma, sc, 388 nmol/kg
Procedure: Plasma concentrations of compounds were determined by LC/MS methods. Each method measured the intact compound; peptide plus linked time extension. For each assay, the compound and an analog, used as an internal standard (IS), were extracted from 100% mouse, rat or monkey plasma (25 μl) using acetonitrile. Two distinct layers were formed upon centrifugation with the compound and the IS located in the supernatant layer. An aliquot of the supernatant (80 μl) was transferred to a Thermo Protein Precipitation Plate with water (150 μl) and formic acid (25 μl) followed by mixing. A final 31% acetonitrile in 10% formic acid sample (10 μl) was loaded onto a Supelco Analytical Discovery BIO Wide Pore C5-3 column (5 cm×1 mm, 3 μm). The column effluent was directed into a Thermo Q-Exactive mass spectrometer for detection and quantitation.
Male CD-1 mice were administered a single subcutaneous dose (350, 386 or 388 nmol/kg) of a compound described herein in 20 mM Tris-HCl Tris Buffer (pH 7 or 8) at a volume of 0.05 or 0.06 mL/animal. Blood was collected at 6, 12, 24, 48, 72, 96, 120 and 168 hours postdose for pharmacokinetic characterization (101).

[2] = system: UniNx db/db AAV renin mice; assay: Uninephrectomized db/db AAV renin model of diabetic nephropathy; type: in vivo
Procedure: The uninephrectomized db/db adeno-associated viral (AAV) renin model represents a progressive model of diabetic kidney disease with hypertension driven by an AAV renin transgene (Am J Physiol Regul Integr Comp Physiol. 309(5):R467-74, (2015)).
The uninephrectomy (UniNx) surgery on female db/db mice on a C57BLKS/J background (obtained from Harlan Laboratories) is performed by Harlan Laboratories at 4 weeks of age with removal of the right kidney to accelerate the diabetic kidney disease. Animals are received at 5 weeks of age and housed in micro-isolator cages at 3 mice per cage and are on a 12 hour light/dark cycle. All db/db mice are fed ad libitum with Purina special diet 5008 and allowed free access to autoclaved water.
Mice are acclimated for 7 weeks prior to administration of AAV Renin (5×10^9 GC) intravenously by the retro-orbital sinus to induce persistent hypertension. Randomization by urine albumin to creatinine ratio (ACR), blood glucose and body weight is done at 15 weeks of age (a point at which renal disease and pathology are established in this model based on observations) into 2 groups of 12 saline control mice and 33 mice to receive Lisinopril treatment.
Dosing with Lisinopril (30 mg/L) begins at 16 weeks of age. After 2 weeks of Lisinopril treatment, the 33 mice are randomized by urine ACR, blood glucose and body weight into 4 groups (one group of 9 mice and 3 groups of 8 mice).
In the 4 groups of UniNx db/db AAV renin mice receiving Lisinopril treatment, either 0.9% physiological saline for injection (“saline control” N=9) or different dose levels of Example 4 (7.2, 24 or 72 nmol/kg, N=8 per dose level) are dosed at 0.2 mL s.c. per injection beginning at 18 weeks of age and continued 3 times weekly for 12 weeks. Albumin and creatinine are measured in urine with a Roche Hitachi Modular Analytics P analyzer with Roche reagents for detection of albumin and creatinine.
For all the groups, the parameters measured are body weight, kidney weight, heart weight, urine albumin to creatinine ratio, serum creatinine and renal pathology scores for mesangial matrix expansion, glomerular fibrosis, tubular regeneration, interstitial inflammation and interstitial fibrosis.
At 15 and 27 weeks of age, blood (30 to 50 uL) from all the UniNx db/db AAV Renin mice is obtained from the tail vein and dropped onto a Precision PCx blood glucose sensor electrode strip (Abbott Laboratories) for blood glucose determination with a MediSense Precision PCx glucometer (Abbott Laboratories). Blood glucose data is used to block the UniNx db/db mice into equivalent groups. Body weight is determined at baseline and at termination with a Metler Toledo Balance. The heart and kidney are removed at necropsy and weighed on a Metler Toledo Balance. Blood (500 ul) is collected from the retro-orbital sinus at termination under isoflurane anesthesia. The clotted blood is centrifuged to obtain serum. Serum is analyzed for creatinine on a Roche Hitachi Modular Analytics P analyzer with reagents from Roche.
Urine is collected by a spot collection method to collect urine over a 2-4 hr time period. An individual mouse is placed on top of a 96 well polypropylene microplate and then covered by a Plexiglas chamber with holes for breathing but no access to food or water. At the end of the time period, the urine is removed from the plate with a micropipette and placed on ice, centrifuged and subjected to albumin and creatinine analysis. Urine albumin, creatinine and glucose are determined on a Roche Hitachi Modular Analytics P analyzer. Urine creatinine is determined with the Creatinine Plus reagent by Roche. For urine albumin, the Roche Microalbumin assay is modified to adapt the calibration curve for measuring urine albumin in mice. Albuminuria was defined as albumin to creatinine ratio (ACR).
Kidneys are removed at study termination, fixed in formalin and processed for paraffin sectioning according to standard methodology. […]

[3] = CHO cells transfected with human CRHR2b, mean ± SEM of runs
[4] = Lisinopril plus Saline, after 12 weeks, scale none (0) to severe (5)
[5] = UniNx db/db AAV renin mice, Lisinopril plus Saline, after 12 weeks
[6] = UniNx db/db AAV renin mice, Lisinopril plus Saline, baseline

EC50 (human CRHR2b; [3]): 2.44 ± 1.36 nM
AUC(0-inf) [1]: 32.2 µM·h
CL/F [1]: 0.202 mL/min/kg
Cmax [1]: 1150 nM
Tmax [1]: 12 h
half-life [1]: 16 h
Compound: CC[C@H](C)[C@H](NC(C)=O)C(=O)N[C@H](C(=O)N[C@@H](CC(C)C)C(=O)N[C@@H](CO)C(=O)N[C@@H](CC(C)C)C(=O)N[C@@H](CC(=O)O)C(=O)N[C@H](C(=O)N1CCC[C@H]1C(=O)N[C@H](C(=O)NCC(=O)N[C@@H](CC(C)C)C(=O)N[C@@H](CC(C)C)C(=O)N[C@@H](CCC(N)=O)C(=O)N[C@H](C(=O)N[C@@H](CC(C)C)C(=O)N[C@@H](CC(C)C)C(=O)N[C@@H](CCC(=O)O)C(=O)N[C@@H](CCC(N)=O)C(=O)N[C@@H](CCC(=O)O)C(=O)N[C@@H](CCCCN)C(=O)N[C@@H](CCC(N)=O)C(=O)N[C@@H](CCC(=O)O)C(=O)N[C@@H](CCCCN)C(=O)N[C@@H](CCC(=O)O)C(=O)N[C@@H](CCCCN)C(=O)N[C@@H](CCC(N)=O)C(=O)N[C@@H](CCC(N)=O)C(=O)N[C@@H](C)C(=O)N[C@@H](CCCCNC(=O)COCCOCCNC(=O)COCCOCCNC(=O)CC[C@H](NC(=O)CC[C@H](NC(=O)CCCCCCCCCCCCCCCCC(=O)O)C(=O)O)C(=O)O)C(=O)N[C@H](C(=O)N[C@@H](CC(N)=O)C(=O)N[C@@H](C)C(=O)N[C@@H](CCC(N)=O)C(=O)N[C@H](C(=O)N[C@@H](CC(C)C)C(=O)N[C@@H](C)C(=O)N[C@@H](CCC(N)=O)C(=O)N[C@H](C(N)=O)C(C)C)[C@@H](C)CC)[C@@H](C)O)[C@@H](C)CC)[C@@H](C)CC)C(C)C)C(C)C [Example 1] (Ac-IVLSLDVPIGLLQILLEQEKQEKEKQQAK([AEEA-AEEA-γGlu-γGlu-C18 diacid])TNAQILAQV-NH2)

EC50 (human CRHR2b; [3]): 0.94 ± 0.05 nM
Compound: CC[C@H](C)[C@H](NC)C(=O)N[C@H](C(=O)N[C@H](C(=O)N[C@@H](CO)C(=O)N[C@@H](CC(C)C)C(=O)N[C@@H](CC(=O)O)C(=O)N[C@H](C(=O)N1CCC[C@H]1C(=O)N[C@H](C(=O)NCC(=O)N[C@@H](CC(C)C)C(=O)N[C@@H](CC(C)C)C(=O)N[C@@H](CCC(N)=O)C(=O)N[C@H](C(=O)N[C@@H](CC(C)C)C(=O)N[C@H](C(=O)N[C@@H](CCC(=O)O)C(=O)N[C@@H](CCC(N)=O)C(=O)N[C@@H](CCC(=O)O)C(=O)N[C@@H](CCCCN)C(=O)N[C@@H](CCC(N)=O)C(=O)N[C@@H](CCC(=O)O)C(=O)N[C@@H](CCCCN)C(=O)N[C@@H](CCC(=O)O)C(=O)N[C@@H](CCCCN)C(=O)N[C@@H](CCC(N)=O)C(=O)N[C@@H](CCC(N)=O)C(=O)N[C@@H](C)C(=O)N[C@@H](CCCCNC(=O)COCCOCCNC(=O)COCCOCCNC(=O)CC[C@H](NC(=O)CC[C@H](NC(=O)CCCCCCCCCCCCCCCCCCC(=O)O)C(=O)O)C(=O)O)C(=O)N[C@H](C(=O)N[C@@H](CC(N)=O)C(=O)N[C@@H](C)C(=O)N[C@@H](CCC(=O)O)C(=O)N[C@H](C(=O)N[C@@H](CC(C)C)C(=O)N[C@@H](C)C(=O)N[C@@H](CCC(N)=O)C(=O)N[C@H](C(N)=O)C(C)C)[C@@H](C)CC)[C@@H](C)O)[C@@H](C)CC)[C@@H](C)CC)[C@@H](C)CC)C(C)C)[C@@H](C)O)C(C)C [Example 7] (H-[NMeI]VTSLDVPIGLLQILIEQEKQEKEKQQAK([AEEA-AEEA-γGlu-γGlu-C20 diacid])TNAEILAQV-NH2)

Compound: NCCCC[C@H](N[C@@H](CCc1ccccc1)C(=O)O)C(=O)N1CCC[C@H]1C(=O)O [Lisinopril]
Glomerular Fibrosis, pathology score [2, 4]: 1.4 ± 0.2 ^a
Interstitial Fibrosis, pathology score [2, 4]: 2.0 ± 0.3 ^
Interstitial Inflammation, pathology score [2, 4]: 1.1 ± 0.3 ^a
Mesangial Matrix Expansion, pathology score [2, 4]: 2.1 ± 0.1 ^a
Tubular Regeneration, pathology score [2, 4]: 2.0 ± 0.2 ^a
Albumin to Creatinine Ratio (ACR) ([2]; Lisinopril plus Saline, week 0 of treatment with Example 4): 15203 ± 2835 ^
Albumin to Creatinine Ratio (ACR) ([2]; Lisinopril plus Saline, week 1): 16491 ± 3362 ^
Albumin to Creatinine Ratio (ACR) ([2]; Lisinopril plus Saline, week 2): 16160 ± 4162 ^a
Albumin to Creatinine Ratio (ACR) ([2]; Lisinopril plus Saline, week 3): 13069 ± 3295 ^a
Albumin to Creatinine Ratio (ACR) ([2]; Lisinopril plus Saline, week 6): 11584 ± 3132 ^a
Albumin to Creatinine Ratio (ACR) ([2]; Lisinopril plus Saline, week 8): 12484 ± 4626 ^a
Albumin to Creatinine Ratio (ACR) ([2]; Lisinopril plus Saline, week 10): 20429 ± 4998 ^a
Albumin to Creatinine Ratio (ACR) ([2]; Lisinopril plus Saline, week 12): 19075 ± 6268 ^a
deaths over the course of the study ([2]; Lisinopril plus saline group (N=9)): 2
Final Blood Glucose [2, 5]: 466 mg/dL
Final Body Weight [2, 5]: 61.8 g
Heart Weight [2, 5]: 227 mgs
Kidney Weight [2, 5]: 392 mgs
Serum Creatinine [2, 5]: 0.130 mg/dL
Initial Blood Glucose [2, 6]: 444 mg/dL
Initial Body Weight [2, 6]: 61.6 g

EC50 (human CRHR2b; Table 26, compounds of Example 9): 1.17 nM
Compound: IVLSLDVPIGLLQILLEQEKQEKEKQQAK*ENAQILAQV-NH2 [Compound 56, K* at position 29 bonded with ([2-(2-Amino-ethoxy)-ethoxy]-acetyl)2-γE-CO—(CH2)16—COOH; C-terminal primary amide]
